Test results taken from patent publication US6346536B1, “Poly(ADP-ribose) polymerase inhibitors and method for treating neural or cardiovascular tissue damage using the same” (Guilford Pharmaceuticals Inc., priority 1997, dated 2002).
pIC50: −log10 of the molar value. Read-outs that look alike come from different tables or passages of the source. Values belong to the molecule of their own block, whether it stands above or below them.

Tests used:
[1] = target: T1, purified recombinant human PARP (Homo sapiens, UniProt P09874); test: PARP enzyme assay using purified recombinant human PARP, [3H]NAD incorporation; format: biochemical; conditions: 25° C., 15 minutes, 3.0 micromolar [3H]NAD, read-out: Approximate IC50's
T1 construct: purchased Trevigen (Gaithersburg, Md.)
Method: The reaction is initiated by incubating the mixture at 25° C. After 15 minutes' incubation, the reaction is terminated by adding 500 microliters of ice cold 20% (w/v) trichloroacetic acid. The precipitate formed is transferred onto a glass fiber filter (Packard Unifilter-GF/B) and washed three times with ethanol. After the filter is dried, the radioactivity is determined by scintillation counting.

[2] = test system: ischemia and reperfusion of the heart; conditions: rabbits, cited from earlier work
PARP = conditions: read-out: IC50 for inhibiting PARP; reported by Suto et al.; cited from earlier work
[3] = test system: cell viability, glucose metabolism, and DNA synthesis; conditions: Milam et al., Science 1984; cited from earlier work

T1 sequence (P09874 whole entry): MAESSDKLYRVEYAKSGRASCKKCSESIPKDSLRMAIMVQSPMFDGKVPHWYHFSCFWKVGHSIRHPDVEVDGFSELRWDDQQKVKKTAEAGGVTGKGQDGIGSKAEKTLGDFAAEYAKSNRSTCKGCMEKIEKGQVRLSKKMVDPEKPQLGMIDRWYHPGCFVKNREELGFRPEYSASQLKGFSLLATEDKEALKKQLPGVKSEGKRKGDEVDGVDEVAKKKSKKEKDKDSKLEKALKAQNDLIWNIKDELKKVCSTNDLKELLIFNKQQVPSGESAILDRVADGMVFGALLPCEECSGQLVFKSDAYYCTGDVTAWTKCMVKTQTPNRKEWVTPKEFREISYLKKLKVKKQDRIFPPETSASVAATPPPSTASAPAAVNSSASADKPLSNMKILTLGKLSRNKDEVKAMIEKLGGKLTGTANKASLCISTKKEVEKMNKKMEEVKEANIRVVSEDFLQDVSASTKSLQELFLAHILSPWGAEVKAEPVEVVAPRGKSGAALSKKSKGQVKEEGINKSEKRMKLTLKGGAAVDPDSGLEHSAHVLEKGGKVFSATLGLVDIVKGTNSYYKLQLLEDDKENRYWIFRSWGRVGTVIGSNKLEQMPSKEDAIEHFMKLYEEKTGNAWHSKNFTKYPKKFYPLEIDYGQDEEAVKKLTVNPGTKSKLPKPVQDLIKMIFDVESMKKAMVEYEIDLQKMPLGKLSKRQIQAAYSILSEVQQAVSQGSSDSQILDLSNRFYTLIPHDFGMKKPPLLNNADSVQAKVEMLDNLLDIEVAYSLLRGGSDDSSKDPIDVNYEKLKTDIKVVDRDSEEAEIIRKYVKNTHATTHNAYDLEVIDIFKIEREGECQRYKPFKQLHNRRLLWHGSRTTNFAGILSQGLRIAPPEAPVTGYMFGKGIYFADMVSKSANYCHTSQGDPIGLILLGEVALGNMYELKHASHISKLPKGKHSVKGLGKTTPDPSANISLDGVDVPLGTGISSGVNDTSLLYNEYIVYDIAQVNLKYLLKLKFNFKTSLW

- pIC50 ([1]; unit μm [sic]): 4.52
SMILES: O=c1[nH]c(-c2ccccc2)cc2ccccc12

- pIC50 [1]: 5.00
SMILES: O=C(O)c1c[nH]c(=O)c2ccccc12

- pIC50 [1]: 5.00
SMILES: O=c1[nH]ccc2c([N+](=O)[O-])cccc12

- pIC50 [1]: 6.10
SMILES: COC(=O)c1c[nH]c(=O)c2ccccc12

Second part, the molecule before the results:

SMILES: O=c1[nH]cc([N+](=O)[O-])c2ccccc12
- pIC50 [1]: 5.30

SMILES: Oc1cccc2c(O)nccc12 [1,5-dihydroxyisoquinoline]
- reduction in infarct size ([2]; single injection 1 mg/kg): 38-48%

SMILES: O=C1NCCc2c(OCCCCN3CCCCC3)cccc21 [3,4-dihydro-5-[4-(1-piperidinyl)butoxy]1(2H)-isoquinolinone]
- pIC50 (PARP): 7.40

SMILES: NC(=O)c1cccc(N)c1 [3-aminobenzamide]
- side effects on other metabolic processes [3]: affect cell viability, glucose metabolism, and DNA synthesis
- reduction in infarct size in the heart ([2]; single injection 10 mg/kg, one minute before occlusion or one minute before reperfusion): 32-42%

SMILES: NC(=O)c1ccccc1 [benzamide]
- side effects on other metabolic processes [3]: affect cell viability, glucose metabolism, and DNA synthesis
